Where two headings read alike, the source gives them in different places. *1 amine or outer side, *2 acyl side, *3 side chain or, on linkers, in order; H or OH if unused. Where a SMILES comes first, the peptide text is derived from it. Bridges are numbered along the chain shown (N, C = ends). [ ]: non-standard residue; d: D form. Biphenyl(4,4'-CH2)2 = c1cc(-c2ccc(C[*:2])cc2)ccc1C[*:1]; Maleimide(3,4-diyl) = O=C1NC(=O)C([*:2])=C1[*:1]; Pro(trans-4-F) = O=C(O)[C@@H]1C[C@@H](F)CN1; Phe(4-Br) = N[C@@H](Cc1ccc(Br)cc1)C(=O)O; Nle = CCCC[C@H](N)C(=O)O
Target: T1, Aurora-A122-403-C290A/C393A (Homo sapiens, UniProt O14965, C290A/C393A)
T1 construct: Human Aurora-A kinase domain 122-403 wild-type or C290A/ C393A mutant; His tag (pET30TEV vector) (N, cleaved yes); made in house; host or cells: E. coli RIL, co-expressed with lambda phosphatase (Aurora-A); tracer by solid phase synthesis
T1 sequence (O14965 122-403 C290A/C393A): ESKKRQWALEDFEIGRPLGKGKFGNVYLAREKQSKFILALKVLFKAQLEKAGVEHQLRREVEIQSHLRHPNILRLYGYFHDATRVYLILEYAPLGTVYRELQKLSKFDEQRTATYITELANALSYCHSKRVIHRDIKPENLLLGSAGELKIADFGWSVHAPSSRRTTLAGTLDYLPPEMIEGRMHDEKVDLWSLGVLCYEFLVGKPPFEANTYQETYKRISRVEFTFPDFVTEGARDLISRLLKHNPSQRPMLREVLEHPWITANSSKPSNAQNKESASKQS
Assay: Competition FA assay against FAM-Ahx-TACC3 522-536 tracer
Type: binding
Description: Once completed, the mixtures were transferred into SPPS fritted reaction vessels and washed with H2O (5X, 10 mL, 2 min), DMF (5X, 5mL, 2 min) and DCM (5X, 5 mL, 2 min). The clean resins were dried under vacuum and the cyclic peptides cleaved from the resin following the general procedures described in previous sections. After Et2O precipitation, the crude materials were freeze-dried and redissolved in H2O/MeCN/TFA 90/10/0.1% v/v for preparative HPLC purification.
All disulfide peptide variants (ox) were produced in situ from their free-thiol solid precursors. For this, 2 mg of the pure peptide materials were dissolved in aqueous DMSO 33% v/v to a 10 mM concentration and were left open to air oxidation at room temperature overnight. […]
the peptides were employed for FA competition assays and IC50 evaluation without further additional […]
Fluorescence anisotropy (FA) assays – General information.
All assays were performed using 384-well plates(Greiner Bio-one, UK). […]
produced as described previously.11 All samples were prepared in 25 mM Tris,150 mM NaCl, 5 mM MgCl2, pH= 7.5, unless otherwise stated, and tested in triplicate using an EnVisionTM 2103 MultiLabel plate reader (PerkinElmer; Waltham, MA, USA).The parameters were set as follows: Excitation wavelength = 480 nm (30 nm bandwidth) and emission wavelength = 535 nm (30 nm bandwidth). Measured data were processed and analysed as previously described.12 Specifically, the perpendicular intensity (P) and parallel intensity (S) were subtracted by the control values and used for calculations of intensity and anisotropy using the following Equations 1, 2, 3, 4, and 5:
I= (2PG) + S Eq. (SI − 5)
r = (S − PG) Eq. (SI − 6)
L = r − r௠௜௡ Eq. (SI − 7)
y = (k + x + [FL]) − ඥ(k + x + [FL]2 − 4 ∗ x ∗ [FL]) Eq. (SI − 8)
y = r + r௠௜௡ − r௠௔௫ Eq. (SI − 9)
Where I = total intensity; P = perpendicular intensity; S = parallel intensity; G = instrument factor; r = anisotropy; Lb = ligand bound fraction; λ = change in intensity between bound and unbound states which […]
FA direct binding assays. […]
starting from 700 μM, diluted over 24 points in a 1/2 regime using the FAM-Ahx-labeled peptides at a final fixed concentration of 50 nM per well.
FA competition assays were performed using the same plates and buffer as described above, with the initial […]
14 points in a 1/2 regime. […]
after 4 h of incubation to enable appropriate sample equilibration. To prevent sample oxidation, when sulfhydryl peptides were analyzed DTT was added to the buffer (5 mM). In competition mode, the average anisotropy and the average standard deviation of the values derived from equation SI-6 were calculated and fit to a sigmoidal logistic model (equation SI-9) using Origin 2021. When using peptides for which full […]
For consistency, all the data […]
indicating the corresponding SD. […]

[1] = as E1, free-sulfhydryl (reduced) species, DTT 5 mM in buffer, WT control (+DTT), mean ± SD, n = 3, read-out: IC50 (red)
[2] = as E1, oxidised (disulfide) species made in situ from 10 mM stock in aqueous DMSO 33% v/v, air, overnight, WT control (+DMSO) given the same DMSO incubation, mean ± SD, n = 3, read-out: IC50 (ox)

| IC50 [1] | IC50 (SD, read-out: IC50) | SMILES | also measured |
| --- | --- | --- | --- |
| – | – | CC(=O)N[C@H]1CSCc2ccc(cc2)-c2ccc(cc2)CSC[C@@H](C(=O)N[C@@H](C)C(=O)N[C@@H](CCC(=O)O)C(=O)N[C@H](C(=O)N[C@@H](CC(C)C)C(=O)NCC(=O)N[C@H](C(=O)NCC(=O)N[C@@H](C)C(N)=O)[C@@H](C)O)C(C)C)NC(=O)[C@H](CC(=O)O)NC(=O)[C@H](CCCNC(=N)N)NC(=O)[C@H](Cc2ccccc2)NC(=O)[C@H](CO)NC(=O)[C@H](CCC(=O)O)NC1=O [TACC3 522-536 E522C/P528C (Bph)] (Ac-CESFRDCAEVLGTGA-NH2; linker 1-7 via Biphenyl(4,4'-CH2)2) | IC50 (as E1, Table S3 column (Bph): biphenyl-constrained species, WT value is an individual replica control assay, mean ± SD, n = 3, SD, read-out: IC50 (Bph)): 280 ± 32 µM |
| ≥ 500 µM | – | CC(=O)N[C@@H](CCC(=O)O)C(=O)N[C@@H](CCC(=O)O)C(=O)N[C@@H](CO)C(=O)N[C@@H](Cc1ccccc1)C(=O)N[C@@H](CCCNC(=N)N)C(=O)N[C@@H](CS)C(=O)N1CCC[C@H]1C(=O)N[C@@H](C)C(=O)N[C@@H](CS)C(=O)N[C@H](C(=O)N[C@@H](CC(C)C)C(=O)NCC(=O)N[C@H](C(=O)NCC(=O)N[C@@H](C)C(N)=O)[C@@H](C)O)C(C)C [TACC3 522-536 D527C/E530C (red)] (Ac-EESFRCPACVLGTGA-NH2) | – |
| – | 16 ± 1 µM | CC(=O)N[C@@H](CC(C)C)C(=O)N[C@@H](CCC(=O)O)C(=O)N[C@@H](CC(C)C)C(=O)N[C@@H](CCCCN)C(=O)N[C@@H](CCC(=O)O)C(=O)N[C@@H](CCC(=O)O)C(=O)N[C@H]1CSCc2ccc(cc2)-c2ccc(cc2)CSC[C@@H](C(=O)N[C@H](C(=O)N[C@@H](CC(C)C)C(N)=O)C(C)C)NC(=O)[C@H](C)NC(=O)[C@@H]2C[C@@H](F)CN2C(=O)[C@H](CC(=O)O)NC(=O)[C@H](CCCNC(=N)N)NC(=O)[C@H](Cc2ccc(Br)cc2)NC1=O [TACC3 518-532-S/E-Bph-BrF/fP] (Ac-LELKEEC[Phe(4-Br)]RD[Pro(trans-4-F)]ACVL-NH2; linker 7-13 via Biphenyl(4,4'-CH2)2) | – |
| ≥ 500 µM | – | CC(=O)N[C@@H](CCC(=O)O)C(=O)N[C@@H](CCC(=O)O)C(=O)N[C@@H](CO)C(=O)N[C@@H](CS)C(=O)N[C@@H](CCCNC(=N)N)C(=O)N[C@@H](CC(=O)O)C(=O)N[C@@H](CS)C(=O)N[C@@H](C)C(=O)N[C@@H](CCC(=O)O)C(=O)N[C@H](C(=O)N[C@@H](CC(C)C)C(=O)NCC(=O)N[C@H](C(=O)NCC(=O)N[C@@H](C)C(N)=O)[C@@H](C)O)C(C)C [TACC3 522-536 F525C/P528C (red)] (Ac-EESCRDCAEVLGTGA-NH2) | – |
| – | – | CC(=O)N[C@@H](CCC(=O)O)C(=O)N[C@@H](CCC(=O)O)C(=O)N[C@@H](CO)C(=O)N[C@@H](Cc1ccccc1)C(=O)N[C@@H](CCCNC(=N)N)C(=O)N[C@@H](CC(=O)O)C(=O)N1CCC[C@H]1C(=O)N[C@H]1CSSC[C@@H](C(=O)NCC(=O)N[C@H](C(=O)NCC(=O)N[C@@H](C)C(N)=O)[C@@H](C)O)NC(=O)[C@H](C(C)C)NC(=O)[C@H](CCC(=O)O)NC1=O [TACC3 522-536 A529C/L532C (ox)] (Ac-EESFRDPCEVCGTGA-NH2; disulfide 8-11) | IC50 [2]: ≥ 500 µM |
| – | 170 ± 17 µM | CC(=O)N[C@@H](CCC(=O)O)C(=O)N[C@@H](CCC(=O)O)C(=O)N[C@@H](CO)C(=O)N[C@@H](Cc1ccc(C(F)(F)F)cc1)C(=O)N[C@@H](CCCNC(=N)N)C(=O)N[C@@H](CC(=O)O)C(=O)N1CCC[C@H]1C(=O)N[C@@H](C)C(=O)N[C@@H](CCC(=O)O)C(=O)N[C@H](C(=O)N[C@@H](CC(C)C)C(=O)NCC(=O)N[C@H](C(=O)NCC(=O)N[C@@H](C)C(N)=O)[C@@H](C)O)C(C)C [TACC3 522-536_(4-CF3)525F] | – |
| – | – | CC(=O)N[C@@H](CCC(=O)O)C(=O)N[C@@H](CCC(=O)O)C(=O)N[C@@H](CO)C(=O)N[C@@H](Cc1ccccc1)C(=O)N[C@@H](CCCNC(=N)N)C(=O)N[C@@H](CC(=O)O)C(=O)N1CCC[C@H]1C(=O)N[C@@H](C)C(=O)N[C@H]1CSC2=C(SC[C@@H](C(=O)N[C@H](C(=O)NCC(=O)N[C@@H](C)C(N)=O)[C@@H](C)O)NC(=O)[C@H](CC(C)C)NC(=O)[C@H](C(C)C)NC1=O)C(=O)NC2=O [TACC3 522-536 E530C/G533C (mal)] (Ac-EESFRDPACVLCTGA-NH2; linker 9-12 via Maleimide(3,4-diyl)) | IC50 (as E1, Table S3 (mal): maleimide-constrained species, WT value is an individual replica control assay, mean ± SD, n = 3, SD, read-out: IC50 (mal)): 223 ± 17 µM |
| – | 184 ± 22 µM | CC(=O)N[C@@H](CCC(=O)O)C(=O)N[C@@H](CCC(=O)O)C(=O)N[C@@H](CO)C(=O)N[C@@H](Cc1ccc(F)cc1)C(=O)N[C@@H](CCCNC(=N)N)C(=O)N[C@@H](CC(=O)O)C(=O)N1CCC[C@H]1C(=O)N[C@@H](C)C(=O)N[C@@H](CCC(=O)O)C(=O)N[C@H](C(=O)N[C@@H](CC(C)C)C(=O)NCC(=O)N[C@H](C(=O)NCC(=O)N[C@@H](C)C(N)=O)[C@@H](C)O)C(C)C [TACC3 522-536_(4-F)525F] | – |
| ≥ 500 µM | – | CC(=O)N[C@@H](CCC(=O)O)C(=O)N[C@@H](CS)C(=O)N[C@@H](CO)C(=O)N[C@@H](Cc1ccccc1)C(=O)N[C@@H](CS)C(=O)N[C@@H](CC(=O)O)C(=O)N1CCC[C@H]1C(=O)N[C@@H](C)C(=O)N[C@@H](CCC(=O)O)C(=O)N[C@H](C(=O)N[C@@H](CC(C)C)C(=O)NCC(=O)N[C@H](C(=O)NCC(=O)N[C@@H](C)C(N)=O)[C@@H](C)O)C(C)C [TACC3 522-536 E523C/R526C (red)] (Ac-ECSFCDPAEVLGTGA-NH2) | – |
| – | – | CC(=O)N[C@@H](CCC(=O)O)C(=O)N[C@@H](CCC(=O)O)C(=O)N[C@@H](CO)C(=O)N[C@@H](Cc1ccccc1)C(=O)N[C@@H](CCCNC(=N)N)C(=O)N[C@@H](CC(=O)O)C(=O)N1CCC[C@H]1C(=O)N[C@@H](C)C(=O)N[C@@H](CCC(=O)O)C(=O)N[C@H](C(=O)N[C@@H](CC(C)C)C(=O)N[C@H]1CSSC[C@@H](C(N)=O)NC(=O)CNC(=O)[C@H]([C@@H](C)O)NC1=O)C(C)C [TACC3 522-536 G533C/A536C (ox)] (Ac-EESFRDPAEVLCTGC-NH2; disulfide 12-15) | IC50 [2]: ≥ 500 µM |
| – | – | CCCC[C@H](NC(=O)[C@H](CCC(=O)O)NC(=O)[C@H](C)NC(=O)[C@@H]1CCCN1C(=O)[C@H](CC(=O)O)NC(=O)[C@H](CCCNC(=N)N)NC(=O)[C@H](Cc1ccccc1)NC(=O)[C@H](CO)NC(=O)[C@H](CCC(=O)O)NC(=O)[C@H](CCC(=O)O)NC(C)=O)C(=O)N[C@@H](CC(C)C)C(=O)NCC(=O)N[C@H](C(=O)NCC(=O)N[C@@H](C)C(N)=O)[C@@H](C)O [TACC3 522-536_V531nL] (Ac-EESFRDPAE[Nle]LGTGA-NH2) | IC50 (read-out: IC50): ≥ 300 µM |
| – | 97 ± 10 µM | CC(=O)N[C@@H](CCC(=O)O)C(=O)N[C@@H](CCC(=O)O)C(=O)N[C@@H](CO)C(=O)N[C@@H](Cc1c(F)c(F)c(F)c(F)c1F)C(=O)N[C@@H](CCCNC(=N)N)C(=O)N[C@@H](CC(=O)O)C(=O)N1CCC[C@H]1C(=O)N[C@@H](C)C(=O)N[C@@H](CCC(=O)O)C(=O)N[C@H](C(=O)N[C@@H](CC(C)C)C(=O)NCC(=O)N[C@H](C(=O)NCC(=O)N[C@@H](C)C(N)=O)[C@@H](C)O)C(C)C [TACC3 522-536_5f-525F] | – |
| ≥ 500 µM | – | CC(=O)N[C@@H](CCC(=O)O)C(=O)N[C@@H](CCC(=O)O)C(=O)N[C@@H](CO)C(=O)N[C@@H](Cc1ccccc1)C(=O)N[C@@H](CCCNC(=N)N)C(=O)N[C@@H](CC(=O)O)C(=O)N1CCC[C@H]1C(=O)N[C@@H](C)C(=O)N[C@@H](CS)C(=O)N[C@H](C(=O)N[C@@H](CC(C)C)C(=O)N[C@@H](CS)C(=O)N[C@H](C(=O)NCC(=O)N[C@@H](C)C(N)=O)[C@@H](C)O)C(C)C [TACC3 522-536 E530C/G533C (red)] (Ac-EESFRDPACVLCTGA-NH2) | – |

Source: article PMC11604048, “Constrained TACC3 peptidomimetics for a non-canonical protein–protein interface elucidate allosteric communication in Aurora-A kinase” (Chemical Science, 2024)
